For assay [1], the target named is purified tubulin and MAP2 (Homo sapiens, UniProt P11137). In words: Increase in optical density at 345 nm of purified tubulin and MAP2 (microtubule polymerization). The class given is biochemical. The conditions noted are these: 37° C., GTP. As for the experimental part: Activity is measured by the increase in optical density at 345 nm of a mixture of purified tubulin and MAP2, incubated at 37° C. in the presence of GTP.

Another assay has as its target MAP2 (Homo sapiens, UniProt P11137). Briefly: Binding by displacement of PREG-3H.
A further assay relates to PC12 cells. Briefly: Stimulation of neuritic sprouting in NGF-differentiated PC12 cells. The class given is cell-based. To be noted: NGF 10 ng/ml, steroid 30 μM, 3 days, relative to PREG. As for the experimental part: Stimulation of neuritic sprouting is conducted on PC12 cells differentiated in the presence of NGF (10 ng/ml) and the steroid being tested (30 μM) for 3 days. For each condition, the average length of the longest 200 neurites in each cell is measured simultaneously for 3 cultures.

In assay [2] the target is T1, human progesterone receptor(PR) (Homo sapiens, UniProt P06401).
T1 construct: expressed in transfected cells; host or cells: HEK293T
T1 sequence (P06401 1-933): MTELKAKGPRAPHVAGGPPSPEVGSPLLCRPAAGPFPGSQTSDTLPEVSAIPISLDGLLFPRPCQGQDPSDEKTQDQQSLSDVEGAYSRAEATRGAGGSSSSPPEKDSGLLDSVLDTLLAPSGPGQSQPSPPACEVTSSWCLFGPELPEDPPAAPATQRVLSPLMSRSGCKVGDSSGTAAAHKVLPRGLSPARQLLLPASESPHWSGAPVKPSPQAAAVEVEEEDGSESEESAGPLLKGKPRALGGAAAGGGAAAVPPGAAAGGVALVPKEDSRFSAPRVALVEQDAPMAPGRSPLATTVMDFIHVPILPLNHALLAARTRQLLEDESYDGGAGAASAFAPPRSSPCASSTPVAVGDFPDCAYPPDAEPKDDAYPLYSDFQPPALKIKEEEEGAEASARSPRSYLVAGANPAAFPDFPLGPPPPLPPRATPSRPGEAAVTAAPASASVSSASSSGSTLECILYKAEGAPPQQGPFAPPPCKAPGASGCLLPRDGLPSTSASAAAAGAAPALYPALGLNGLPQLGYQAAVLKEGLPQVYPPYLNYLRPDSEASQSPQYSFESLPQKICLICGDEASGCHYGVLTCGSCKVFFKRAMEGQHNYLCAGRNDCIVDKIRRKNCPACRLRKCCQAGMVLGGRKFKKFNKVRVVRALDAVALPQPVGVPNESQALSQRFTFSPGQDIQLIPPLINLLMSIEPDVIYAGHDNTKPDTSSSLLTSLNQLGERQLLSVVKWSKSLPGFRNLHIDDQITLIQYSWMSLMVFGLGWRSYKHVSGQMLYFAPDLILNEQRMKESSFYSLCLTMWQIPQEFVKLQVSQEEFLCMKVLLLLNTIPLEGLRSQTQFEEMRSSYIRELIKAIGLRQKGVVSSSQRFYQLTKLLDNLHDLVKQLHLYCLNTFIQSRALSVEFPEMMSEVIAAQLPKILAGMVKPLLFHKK
In words: Progesterone receptor agonist transactivation (MMTV-luciferase) in transfected HEK293T cells. The class given is cell-based. To be noted: 24 hours, increasing amounts, FIG. 1. The procedure:
The main experimental setting used is the following: HEK293T cells were transiently transfected, using calcium phosphate precipitation technology, with expression vectors pSG5hPR (which permits expression of human progesterone receptor(PR)), pFC31-luc (contains the luciferase gene under the control of the MMTV promoter, which is in turn activated by binding of a progestin to progesterone receptor) and pcbetagal (which permits expression of betagalactosidase), and cultured during 24 hours with increasing amounts of various compositions: • 1. […] Test of progesterone receptor […] activity: transfected cells were cultured with progesterone (1 nM) and increasing amounts of RU486 (a well-known progesterone receptor antagonist) or 3-methoxy-pregnenolone. • With this setting, a compound with progesterone receptor antagonist activity competes with progesterone for the occupation of progesterone receptor and results in a progressive loss of transactivation activity when the amount of this compound is increased compared to progesterone.

Six compounds from patent US20210322443A1 (MAPREG, priority 2015, published 2021) can be followed below.

Molecules are shown by their SMILES.

Chain of MAP2 (P11137 whole entry): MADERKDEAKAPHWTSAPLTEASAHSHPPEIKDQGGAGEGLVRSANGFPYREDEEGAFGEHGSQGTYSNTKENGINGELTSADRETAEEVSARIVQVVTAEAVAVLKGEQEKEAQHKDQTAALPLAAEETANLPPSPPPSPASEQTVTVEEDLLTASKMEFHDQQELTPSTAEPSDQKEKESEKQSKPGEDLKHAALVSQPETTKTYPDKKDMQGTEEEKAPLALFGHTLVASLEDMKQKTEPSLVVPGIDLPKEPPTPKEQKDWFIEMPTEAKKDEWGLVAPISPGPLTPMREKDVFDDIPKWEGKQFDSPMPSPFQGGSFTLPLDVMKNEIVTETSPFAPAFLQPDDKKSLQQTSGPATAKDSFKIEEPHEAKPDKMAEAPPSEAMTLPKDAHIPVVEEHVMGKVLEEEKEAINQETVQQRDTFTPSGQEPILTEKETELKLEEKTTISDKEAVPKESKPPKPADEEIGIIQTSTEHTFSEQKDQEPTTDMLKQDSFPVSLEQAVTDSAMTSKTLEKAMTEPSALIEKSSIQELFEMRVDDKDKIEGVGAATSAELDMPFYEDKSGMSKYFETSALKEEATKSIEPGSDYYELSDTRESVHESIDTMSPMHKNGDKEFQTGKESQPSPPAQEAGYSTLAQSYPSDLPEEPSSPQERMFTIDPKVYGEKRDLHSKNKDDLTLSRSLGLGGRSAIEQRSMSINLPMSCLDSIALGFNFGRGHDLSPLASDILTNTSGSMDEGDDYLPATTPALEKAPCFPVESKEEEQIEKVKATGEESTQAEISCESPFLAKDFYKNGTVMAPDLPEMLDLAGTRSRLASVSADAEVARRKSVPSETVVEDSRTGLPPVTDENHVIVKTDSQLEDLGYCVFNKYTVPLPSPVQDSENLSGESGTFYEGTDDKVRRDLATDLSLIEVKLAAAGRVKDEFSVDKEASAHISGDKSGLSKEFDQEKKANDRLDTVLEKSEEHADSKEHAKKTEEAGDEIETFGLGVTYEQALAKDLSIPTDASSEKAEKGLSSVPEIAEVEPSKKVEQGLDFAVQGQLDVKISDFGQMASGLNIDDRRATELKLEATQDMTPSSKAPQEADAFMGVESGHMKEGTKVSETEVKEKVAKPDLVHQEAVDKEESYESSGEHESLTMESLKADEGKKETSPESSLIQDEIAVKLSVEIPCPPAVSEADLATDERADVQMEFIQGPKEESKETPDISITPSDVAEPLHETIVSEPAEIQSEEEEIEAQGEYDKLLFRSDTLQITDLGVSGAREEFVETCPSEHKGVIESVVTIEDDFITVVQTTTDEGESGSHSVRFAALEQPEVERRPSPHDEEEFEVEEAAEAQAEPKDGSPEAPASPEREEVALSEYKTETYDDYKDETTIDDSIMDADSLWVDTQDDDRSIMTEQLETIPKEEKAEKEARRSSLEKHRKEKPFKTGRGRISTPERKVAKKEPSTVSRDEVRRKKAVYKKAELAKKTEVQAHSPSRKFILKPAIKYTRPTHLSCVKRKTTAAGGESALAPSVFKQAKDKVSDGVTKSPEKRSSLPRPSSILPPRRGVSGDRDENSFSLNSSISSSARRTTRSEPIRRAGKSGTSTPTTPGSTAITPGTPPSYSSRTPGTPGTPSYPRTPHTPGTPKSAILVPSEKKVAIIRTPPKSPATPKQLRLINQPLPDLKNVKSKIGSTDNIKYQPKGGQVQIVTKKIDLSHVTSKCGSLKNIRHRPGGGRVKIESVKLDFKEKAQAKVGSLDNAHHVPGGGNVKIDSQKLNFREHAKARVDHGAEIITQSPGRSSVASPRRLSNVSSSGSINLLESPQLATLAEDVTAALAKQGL
Chain of purified tubulin and MAP2 (P11137 whole entry): as above

In the case of `CC(=O)[C@H]1CC[C@H]2[C@@H]3CC=C4C[C@@H](O)CC[C@]4(C)[C@H]3CC[C@]12C` [Pregnenolone (PREG), 3β-hydroxypregn-5-en-20-one, reference compound], the “Activity (percent of PREG)” value in assay [1] was 100% of PREG. In addition, the “Affinity (index of binding, percent of PREG)” value on MAP2 is recorded as 100% of PREG.

Turning to `CO[C@H]1CC[C@@]2(C)[C@@H](CC[C@@H]3[C@@H]2CC[C@]2(C)[C@@H](C(C)=O)CC[C@@H]32)C1` [3B-methoxy-5a-pregnane-20-one, 3β-methoxy-5α-pregnane-20-one], in the assay on PC12 cells, the Neuritic sprouting result was “+++”. Further, the “Activity (percent of PREG)” value in assay [1] is reported as 10% of PREG. For the same compound, the “Affinity (index of binding, percent of PREG)” value on MAP2 is on record as 87% of PREG.

As to `CO[C@H]1CC[C@@]2(C)C(=CC[C@@H]3[C@@H]2CC[C@@]2(C)[C@H]3CC[C@@]2(C(C)=O)C(Cl)Cl)C1` [3β-methoxy-pregna-5-ene-20-one-17α-dichloromethyl], the “Activity (percent of PREG)” value in assay [1] is recorded as 113% of PREG. For the same compound, the “Affinity (index of binding, percent of PREG)” value on MAP2 is on record as 53% of PREG.

Regarding `CC(=O)[C@H]1CC[C@H]2[C@@H]3CCC4=CC(=O)CC[C@]4(C)[C@H]3CC[C@]12C` [progesterone, reference compound], in assay [2], the “progesterone receptor agonist activity (transactivation, luciferase expression)” value is “permits a transactivation activity leading to the expression of luciferase”.

On to `CO[C@H]1CC[C@@]2(C)C(CCC3C2CC[C@@]2(C)C3CC[C@@H]2[C@@H](C)O)C1` (stereo partly drawn) [3B-methoxy-5a-pregnane-20B-ol, 3β-methoxy-5α-pregnane-20β-ol], for which the Neuritic sprouting result with PC12 cells is given as “++ (equal to)”. Further, the “Activity (percent of PREG)” value in assay [1] is 65% of PREG. Moreover, the “Affinity (index of binding, percent of PREG)” value at MAP2 is given as 65% of PREG.

As to `CO[C@H]1CC[C@@]2(C)C(=CC[C@H]3C4=CC[C@H](C(C)=O)[C@@]4(C)CC[C@@H]32)C1` [3B-methoxy-pregna-5,14-diene-20-one], in the assay with PC12 cells, the Neuritic sprouting entry was “+ (stimulation is lower than)”. Also, the “Activity (percent of PREG)” value in assay [1] is on record as 50% of PREG. In addition, the “Affinity (index of binding, percent of PREG)” value on MAP2 was 102% of PREG.
